# Data published in patent US12458695B2, “Dosing regimens and related compositions and methods” (Apellis Pharmaceuticals, Inc., priority 2017, dated 2025).
# What was measured:
# [1] = system: complement activation; conditions: relative to compstatin amidated at the C-terminus; published data; cited from earlier work
# [2] = system: alternative pathway-mediated erythrocyte lysis; conditions: alternative pathway-mediated erythrocyte lysis assay (WO2004/026328); cited from earlier work
# [3] = Phase 1 single and multiple ascending dose trial of nebulized CA28 in healthy volunteers; format: in vivo, human
# Protocol: In the single ascending dose part of the trial, 16 subjects were enrolled in four cohorts of four subjects each.
# Four subjects were enrolled in the first cohort of the multiple ascending dose part of the trial. These subjects were to receive 14 consecutive days of treatment with a 60 mg/day dose of the drug. […] The trial was paused and subsequently resumed, with subjects receiving 30 mg/day. […] The trial was then terminated.
# Both subjects responded within hours to first-line antibiotic treatment, which is indicative of bacterial pathogenesis. In this trial, subjects were vaccinated against Neisseria meningitides and closely monitored for signs of infections. While the bacterial cultures were all negative, it is believed that Haemophilus influenzae or Streptococcus pneumoniae might have been implicated in the episodes of fever that were observed because C3 deficient individuals are known to be at increased risk of infection with Neisseria meningitidis, Haemophilus influenzae and Streptococcus pneumoniae. Vaccines against these three pathogens are available, and it is believed that the risk of infection can be addressed by vaccination, potentially with addition of prophylactic antibiotics (e.g., penicillin V).
# [4] = Inhalation studies, single dose and 14 day repeated dose; conditions: cynomolgus monkey, in vivo, inhaled or intranasal; 14 day repeated dose; read-out: highest inhaled dose tested without drug-related findings
# Protocol: Inhalation studies of single dose or repeated dosing were conducted in dog and cynomolgus monkey. […] These doses were 25 mg/kg/d in a 7 day repeated dose study in the dog, 80 mg/kg in a single dose study in the monkey, and 30 mg/kg/day in a 14 day repeated dose in the monkey.
Compound,Activity over compstatin [1],further results
Ac-ICV(5fW)QDWGAHRCT-CONH2 [Ac-V4(5fW)/H9A],31xmore,
Ac-ICV(2-Igl)QDWGAHRCT-COOH [Ac-V42Igl/H9A-OH],37xmore,
Ac-ICV(Bta)QDWGAHRCT-COOH [Ac-V4(Bta)/H9A-OH],65xmore,
Ac-ICV(2-Igl)QDWGAHRCT-CONH2 [Ac-V42Igl/H9A],39xmore,
Ac-ICV(1-Nal)QDWGAHRCT-COOH [Ac V4(1-Nal)/H9A-OH],30xmore,
Ac-ICVVQDWGHHRCT-CONH2 [Ac-compstatin],3xmore,
CC[C@H](C)[C@H](N)C(=O)N[C@H]1CSSC[C@@H](C(=O)N[C@H](C(N)=O)[C@@H](C)O)NC(=O)[C@H](CCCN=C(N)N)NC(=O)[C@H](Cc2cnc[nH]2)NC(=O)[C@H](Cc2cnc[nH]2)NC(=O)CNC(=O)[C@H](Cc2c[nH]c3ccccc23)NC(=O)[C@H](CC(=O)O)NC(=O)[C@H](CCC(N)=O)NC(=O)[C@H](C(C)C)NC(=O)[C@H](C(C)C)NC1=O [Compstatin],,IC50 [2]: 12 µM
Ac-ICV(2-Nal)QDWGAHRCT-COOH [Ac V4(2-Nal)/H9A-OH],38xmore,
Ac-ICVWQDWGAHRCdT-COOH [Ac-V4W/H9A/T13dT-OH],55xmore,
Ac-ICVDhtQDWGAHRCT-COOH [Ac-V4Dht/H9A-OH],5xmore,
CC[C@H](C)[C@H](NC(C)=O)C(=O)N[C@H]1CSSC[C@@H](C(=O)N[C@H](C(N)=O)[C@@H](C)O)NC(=O)[C@H](CCCNC(=N)N)NC(=O)[C@H](Cc2cnc[nH]2)NC(=O)[C@H](C)NC(=O)CNC(=O)[C@H](Cc2c[nH]c3ccccc23)NC(=O)[C@H](CC(=O)O)NC(=O)[C@H](CCC(N)=O)NC(=O)[C@H](Cc2cn(C)c3ccccc23)NC(=O)[C@H](C(C)C)NC1=O [CA28],,"adverse event possibly related to pharmacology ([3]; 30 mg/day inhaled, after 10 days of treatment): Another subject developed signs and symptoms consistent with a potential bacterial infection; adverse event possibly related to pharmacology ([3]; 60 mg/day inhaled, following nine days of treatment): one subject developed signs and symptoms consistent with a potential bacterial infection; safety and tolerability ([3]; single inhaled dose 20, 60, 150 or 350 mg): well tolerated and no serious adverse events were reported; NOAEL at 336 h [4]: 30 mg/kg/day"
H-GICV(6fW)QD(6fW)GAHRCTN-COOH (GICVXQDXGAHRCTN; not fully specified; 6-fluoro-Trp at V4 and W7; SITE 1 N-term H; MOD_RES 5 6-fluoro-L-tryptophan; MOD_RES 8 6-fluoro-L-tryptophan; SITE 15 C-term COOH) [+G/V4(6fW)/W7(6fW)H9A+N-OH],126xmore,
Ac-ICVYQDWGAHRCT-CONH2 [Ac-V4Y/H9A],14xmore,
Ac-ICV(Bta)QDWGAHRCT-CONH2 [Ac-V4(Bta)/H9A],64xmore,
Ac-ICV(5-methyl-W)QDWGAHRCT-CONH2 [Ac-V4(5-MeW)/H9A],67xmore,
Ac-ICV(Bpa)QDWGAHRCT-CONH2 [Ac-V4(Bpa)/H9A],86xmore,
Ac-ICV(Bpa)QDWGAHRCT-COOH [Ac-V4(Bpa)/H9A-OH],49xmore,
Ac-ICV(2-Nal)QDWGAHRCT-CONH2 [Ac-V4(2-Nal)/H9A],99xmore,
Ac-ICVWQDWGAHRCT-CONH2 [Ac-V4W/H9A],45xmore,
